# In the supplement of paper PMC10307832:
# How the values were obtained:
# Test in all cases: relative viability (nuclei count vs DMSO), 5 days (fraction); higher = more cells survive
# NCI-H358 = test system: NCI-H358
# Outline: (§1)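 Relative viability was taken as the ratio of nuclei in treated wells to nuclei in vehicle wells. Lung cancer cell lines in 1536-well plates received compounds by pin tool one day after seeding, either one drug alone or a fixed anchor-drug dose plus five library-drug doses (not always all listed) in √10 steps. Nuclei were counted on 4× images after 5 days of treatment, and values are medians of duplicate plates.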
# NCI-H1915 = test system: NCI-H1915
# Outline: as §1
# COR-L 105 = test system: COR-L 105
# Outline: as §1
# NCI-H1793 = test system: NCI-H1793
# Outline: as §1
# NCI-H2170 = test system: NCI-H2170
# Outline: as §1
# SK-MES-1 = test system: SK-MES-1
# Outline: as §1
# NCI-H520 = test system: NCI-H520
# Outline: as §1
# A-427 = test system: A-427
# Outline: as §1
# NCI-H522 = test system: NCI-H522
# Outline: as §1
# NCI-H1944 = test system: NCI-H1944
# Outline: as §1
# NCI-H2087 = test system: NCI-H2087
# Outline: as §1
# NCI-H1975 = test system: NCI-H1975
# Outline: as §1
# HCC-827 = test system: HCC-827
# Outline: as §1
# HCC-44 = test system: HCC-44
# Outline: as §1
# LOU-NH91 = test system: LOU-NH91
# Outline: as §1
# NCI-H2023 = test system: NCI-H2023
# Outline: as §1
# LXF-289 = test system: LXF-289
# Outline: as §1
# NCI-H1792 = test system: NCI-H1792
# Outline: as §1
# SW 1573 = test system: SW 1573
# Outline: as §1
# LCLC-103H = test system: LCLC-103H
# Outline: as §1
# NCI-H1993 = test system: NCI-H1993
# Outline: as §1
# SW 900 = test system: SW 900
# Outline: as §1
# H3255 = test system: H3255
# Outline: as §1
compound,measurement,setting,value
Cc1cn(-c2cc(NC(=O)c3ccc(C)c(Nc4nccc(-c5cccnc5)n4)c3)cc(C(F)(F)F)c2)cn1 [Nilotinib] + CCNC(=O)c1noc(-c2cc(C(C)C)c(O)cc2O)c1-c1ccc(CN2CCOCC2)cc1 [Luminespib] (partner 0.01 µM),relative viability,NCI-H358; first compound 0.001 µM,0.286
same,relative viability,NCI-H358; first compound 0.003162 µM,0.311
same,relative viability,NCI-H358; first compound 0.01 µM,0.43
same,relative viability,NCI-H358; first compound 0.03162 µM,0.188
same,relative viability,NCI-H1915; first compound 0.001 µM,0.713
same,relative viability,NCI-H1915; first compound 0.003162 µM,0.896
same,relative viability,NCI-H1915; first compound 0.01 µM,1.41
same,relative viability,NCI-H1915; first compound 0.03162 µM,0.553
same,relative viability,NCI-H1915; first compound 0.1 µM,0.759
same,relative viability,COR-L 105; first compound 0.001 µM,0.764
same,relative viability,COR-L 105; first compound 0.003162 µM,0.711
same,relative viability,COR-L 105; first compound 0.01 µM,0.75
same,relative viability,COR-L 105; first compound 0.03162 µM,0.698
same,relative viability,COR-L 105; first compound 0.1 µM,0.853
same,relative viability,NCI-H1793; first compound 0.001 µM,0.158
same,relative viability,NCI-H1793; first compound 0.003162 µM,0.162
same,relative viability,NCI-H1793; first compound 0.01 µM,0.195
same,relative viability,NCI-H1793; first compound 0.03162 µM,0.168
same,relative viability,NCI-H1793; first compound 0.1 µM,0.166
same,relative viability,NCI-H2170; first compound 0.001 µM,0.591
same,relative viability,NCI-H2170; first compound 0.003162 µM,1.11
same,relative viability,NCI-H2170; first compound 0.01 µM,1.5
same,relative viability,NCI-H2170; first compound 0.03162 µM,0.328
same,relative viability,NCI-H2170; first compound 0.1 µM,0.877
same,relative viability,SK-MES-1; first compound 0.001 µM,0.784
same,relative viability,SK-MES-1; first compound 0.003162 µM,0.985
same,relative viability,SK-MES-1; first compound 0.01 µM,0.927
same,relative viability,SK-MES-1; first compound 0.03162 µM,0.672
same,relative viability,SK-MES-1; first compound 0.1 µM,0.626
same,relative viability,NCI-H520; first compound 0.001 µM,0.308
same,relative viability,NCI-H520; first compound 0.01 µM,0.244
same,relative viability,NCI-H520; first compound 0.03162 µM,0.223
same,relative viability,NCI-H520; first compound 0.1 µM,0.216
same,relative viability,A-427; first compound 0.001 µM,0.98
same,relative viability,A-427; first compound 0.003162 µM,0.948
same,relative viability,A-427; first compound 0.03162 µM,0.724
same,relative viability,A-427; first compound 0.1 µM,0.336
same,relative viability,NCI-H522; first compound 0.001 µM,1.11
same,relative viability,NCI-H522; first compound 0.003162 µM,1.13
same,relative viability,NCI-H522; first compound 0.01 µM,1.35
same,relative viability,NCI-H522; first compound 0.03162 µM,1.07
same,relative viability,NCI-H522; first compound 0.1 µM,1.15
same,relative viability,NCI-H1944; first compound 0.001 µM,0.627
same,relative viability,NCI-H1944; first compound 0.003162 µM,0.669
same,relative viability,NCI-H1944; first compound 0.01 µM,0.669
same,relative viability,NCI-H1944; first compound 0.03162 µM,0.694
same,relative viability,NCI-H2087; first compound 0.001 µM,0.162
same,relative viability,NCI-H2087; first compound 0.003162 µM,0.219
same,relative viability,NCI-H2087; first compound 0.01 µM,0.202
same,relative viability,NCI-H2087; first compound 0.03162 µM,0.172
same,relative viability,NCI-H2087; first compound 0.1 µM,0.164
same,relative viability,NCI-H1975; first compound 0.001 µM,0.212
same,relative viability,NCI-H1975; first compound 0.003162 µM,0.143
same,relative viability,NCI-H1975; first compound 0.01 µM,0.171
same,relative viability,NCI-H1975; first compound 0.03162 µM,0.205
same,relative viability,NCI-H1975; first compound 0.1 µM,0.138
same,relative viability,HCC-827; first compound 0.003162 µM,0.634
same,relative viability,HCC-827; first compound 0.01 µM,0.721
same,relative viability,HCC-827; first compound 0.03162 µM,0.563
same,relative viability,HCC-827; first compound 0.1 µM,0.542
same,relative viability,HCC-44; first compound 0.001 µM,0.845
same,relative viability,HCC-44; first compound 0.003162 µM,1.12
same,relative viability,HCC-44; first compound 0.01 µM,1.14
same,relative viability,HCC-44; first compound 0.03162 µM,0.943
same,relative viability,HCC-44; first compound 0.1 µM,0.833
same,relative viability,LOU-NH91; first compound 0.001 µM,0.318
same,relative viability,LOU-NH91; first compound 0.003162 µM,0.308
same,relative viability,LOU-NH91; first compound 0.01 µM,0.346
same,relative viability,LOU-NH91; first compound 0.03162 µM,0.276
same,relative viability,LOU-NH91; first compound 0.1 µM,0.321
same,relative viability,NCI-H2023; first compound 0.001 µM,0.854
same,relative viability,NCI-H2023; first compound 0.003162 µM,0.89
same,relative viability,NCI-H2023; first compound 0.01 µM,0.99
same,relative viability,NCI-H2023; first compound 0.03162 µM,1.07
same,relative viability,NCI-H2023; first compound 0.1 µM,0.38
same,relative viability,LXF-289; first compound 0.001 µM,0.655
same,relative viability,LXF-289; first compound 0.003162 µM,1.02
same,relative viability,LXF-289; first compound 0.01 µM,0.988
same,relative viability,LXF-289; first compound 0.03162 µM,0.573
same,relative viability,LXF-289; first compound 0.1 µM,0.649
same,relative viability,NCI-H1792; first compound 0.003162 µM,0.417
same,relative viability,NCI-H1792; first compound 0.01 µM,0.545
same,relative viability,NCI-H1792; first compound 0.1 µM,0.266
same,relative viability,SW 1573; first compound 0.001 µM,0.397
same,relative viability,SW 1573; first compound 0.003162 µM,0.711
same,relative viability,SW 1573; first compound 0.01 µM,0.277
same,relative viability,SW 1573; first compound 0.03162 µM,0.163
same,relative viability,SW 1573; first compound 0.1 µM,0.144
same,relative viability,LCLC-103H; first compound 0.001 µM,0.971
same,relative viability,LCLC-103H; first compound 0.003162 µM,1.3
same,relative viability,LCLC-103H; first compound 0.01 µM,1.33
same,relative viability,LCLC-103H; first compound 0.03162 µM,0.927
same,relative viability,LCLC-103H; first compound 0.1 µM,0.919
same,relative viability,NCI-H1993; first compound 0.001 µM,0.928
same,relative viability,NCI-H1993; first compound 0.003162 µM,0.456
same,relative viability,NCI-H1993; first compound 0.01 µM,0.912
same,relative viability,NCI-H1993; first compound 0.03162 µM,0.773
same,relative viability,NCI-H1993; first compound 0.1 µM,0.765
same,relative viability,SW 900; first compound 0.001 µM,0.177
same,relative viability,SW 900; first compound 0.003162 µM,0.176
same,relative viability,SW 900; first compound 0.01 µM,0.164
same,relative viability,SW 900; first compound 0.03162 µM,0.186
same,relative viability,SW 900; first compound 0.1 µM,0.198
same,relative viability,H3255; first compound 0.001 µM,0.9
same,relative viability,H3255; first compound 0.003162 µM,0.733
same,relative viability,H3255; first compound 0.03162 µM,0.922
same,relative viability,H3255; first compound 0.1 µM,0.325
